ChEMBL document CHEMBL1143568, “A new class of selective myocardial calcium channel modulators. 2. Role of the acetal chain in oxadiazol-3-one derivatives” (J Med Chem, 2005)

What was measured:
Cavia porcellus [1] = species on record: Cavia porcellus; test: Negative inotropic activity as decrease in the developed tension in isolated guinea pig left artium at 5x10E-5 M (n=4-6)
Cavia porcellus [2] = species on record: Cavia porcellus; test: Vasorelaxant activity determined by percentage inhibition of calcium-induced contraction on K+ depolarized guinea pig aortic strip at 5x10E-5 M
Cavia porcellus [3] = species on record: Cavia porcellus; test: Negative chronotropic activity was determined as percent decrease in the artial rate in spontaneously beating guinea pig artium at 5x10E-5 M (n=6-8)
Cavia porcellus [4] = species on record: Cavia porcellus; test: Negative inotropic potency as decrease in the developed tension in isolated guinea pig left artium
Cavia porcellus [5] = species on record: Cavia porcellus; test: Negative inotropic activity as decrease in the developed tension in isolated guinea pig left artium at 10E-5 M (n=4-6)
Cavia porcellus [6] = species on record: Cavia porcellus; test: Negative inotropic activity as decrease in the developed tension in isolated guinea pig left artium 10E-6 M (n=4-6)
Cavia porcellus [7] = species on record: Cavia porcellus; test: Negative chronotropic activity was determined as percent decrease in the artial rate in spontaneously beating guinea pig artium at 10E-5 M (n=6-8)
Cavia porcellus [8] = species on record: Cavia porcellus; test: Compound was tested for percent change in heart rate in isolated guinea pig atrium
Cavia porcellus [9] = species on record: Cavia porcellus; test: Compound was tested for percent change in coronary perfusion pressure in isolated guinea pig atrium
Cavia porcellus [10] = species on record: Cavia porcellus; test: Compound was tested for percent change in atrioventricular conduction time in isolated guinea pig atrium
Cavia porcellus [11] = species on record: Cavia porcellus; test: Negative inotropic activity as decrease in the developed tension in isolated guinea pig left artium at 10E-6 M (n=4-6)
Cavia porcellus [12] = species on record: Cavia porcellus; test: Compound was tested for percent change in maximal rate of the rise in left ventricular pressure in isolated guinea pig atrium
Cavia porcellus [13] = species on record: Cavia porcellus; test: Negative chronotropic activity was determined as percent decrease in the artial rate in spontaneously beating guinea pig artium at5x10E-5 M (n=6-8)
Cavia porcellus [14] = species on record: Cavia porcellus; test: Negative inotropic activity as decrease in the developed tension in isolated guinea pig left artium at 5x10E-5 M (n=4-6); remark: listed apart in the source
Cavia porcellus [15] = species on record: Cavia porcellus; test: Negative inotropic potency as coronary perfusion pressure in isolated guinea pig atrium; settings: Cardiac atrium
Cavia porcellus [16] = species on record: Cavia porcellus; test: Negative inotropic potency as maximal rate of the rise in left ventricular pressure in isolated guinea pig atrium; settings: Cardiac atrium
Cavia porcellus [17] = species on record: Cavia porcellus; test: Negative inotropic potency is determined by decrease in the developed tension on isolated left ventricular papillary muscle (n=5-7); settings: Muscle tissue
Cavia porcellus [18] = species on record: Cavia porcellus; test: Selectivity ratio against negative inotropic potency on left atrium to that of negative inotropic potency on left ventricular papillary muscle in guinea pig

Compound | EC50 (Cavia porcellus [4]) [nM] | Decrease (Cavia porcellus [1]) [%] | Decrease (Cavia porcellus [2]) [%] | Decrease (Cavia porcellus [3]) [%] | further results
CC/C=C/COC1(c2ccc(Br)cc2)SC=C(C)n2c1noc2=O (stereo unspecified) |  | 43 | 11 | 10 | 
CC1=CSC(OCc2ccccc2)(c2ccc(Cl)cc2)c2noc(=O)n21 (stereo unspecified) | 740 | 63 | 4 | 5 | 
CCCCCOC1(c2ccc(Br)cc2)SC=C(C)n2c1noc2=O (stereo unspecified) |  | 34 | 3 | 2 | 
CCCCCCOC1(c2ccc(Cl)cc2)SC=C(C)n2c1noc2=O (stereo unspecified) | 640 | 68 | 3 | 10 | 
COC1(c2ccc(Br)cc2)SC=C(C)n2c1noc2=O (stereo unspecified) |  |  | 13 |  | Decrease (Cavia porcellus [6]): 38%; Decrease (Cavia porcellus [7]): 9%
CCCCCCCCCCCCO[C@@]1(c2ccc(Br)cc2)SC=C(C)n2c1noc2=O | 130 |  | 3 | 16 | Decrease (Cavia porcellus [5]): 59%
CC1=CS[C@@](O)(c2ccc(Br)cc2)c2noc(=O)n21 | 320 | 97 | 12 | 18 | 
CCO[C@@]1(c2ccc(Br)cc2)SC=C(C)n2c1noc2=O | 40 |  | 19 |  | Change (Cavia porcellus [8]): -9%; Change (Cavia porcellus [9]): 32%; Change (Cavia porcellus [10]): -3%; Decrease (Cavia porcellus [11]): 77%; Change (Cavia porcellus [12]): -14%; Decrease (Cavia porcellus [7]): 5%
CCCCCCCC/C=C\CCCCCCCCO[C@@]1(c2ccc(Br)cc2)SC=C(C)n2c1noc2=O | 1260 | 84 | 2 | 9 | 
C=CCOC1(c2ccc(Br)cc2)SC=C(C)n2c1noc2=O (stereo unspecified) | 550 | 91 | 13 | 13 | 
CCCCCOC1(c2ccc(Cl)cc2)SC=C(C)n2c1noc2=O (stereo unspecified) |  |  | 15 | 14 | Decrease (Cavia porcellus [14]): 45%
CCCCCCCCCCCCCCCOC1(c2ccc(Cl)cc2)SC=C(C)n2c1noc2=O (stereo unspecified) | 1130 | 69 | 3 | 9 | 
CCCCOC1(c2ccc(Cl)cc2)SC=C(C)n2c1noc2=O (stereo unspecified) | 1850 | 62 | 9 | 9 | 
C=CCOC1(c2ccc(Cl)cc2)SC=C(C)n2c1noc2=O (stereo unspecified) | 370 | 84 | 21 | 13 | 
CC/C=C/COC1(c2ccc(Cl)cc2)SC=C(C)n2c1noc2=O (stereo unspecified) |  | 46 | 10 | 8 | 
CC1=CSC(OCC(C)C)(c2ccc(Br)cc2)c2noc(=O)n21 (stereo unspecified) | 310 |  | 6 | 11 | Decrease (Cavia porcellus [5]): 79%
CC/C=C\COC1(c2ccc(Cl)cc2)SC=C(C)n2c1noc2=O (stereo unspecified) | 1310 | 67 | 10 | 5 | 
CC/C=C\COC1(c2ccc(Br)cc2)SC=C(C)n2c1noc2=O (stereo unspecified) | 630 | 81 | 11 | 20 | 
CCCCCCCCCCCCCCCCCCOC1(c2ccc(Cl)cc2)SC=C(C)n2c1noc2=O (stereo unspecified) |  | 39 | 2 |  | Decrease (Cavia porcellus [7]): 15%
CC1=CSC(OCc2ccccc2)(c2ccc(Br)cc2)c2noc(=O)n21 (stereo unspecified) | 590 | 63 | 2 | 4 | 

The next lines start with results.

EC50 (Cavia porcellus [4]) [nM] | Compound | Decrease (Cavia porcellus [1]) [%] | Decrease (Cavia porcellus [2]) [%] | Decrease (Cavia porcellus [3]) [%] | further results
800 | CC1=CS[C@@](O)(c2ccc(Cl)cc2)c2noc(=O)n21 |  | 26 | 18 | Decrease (Cavia porcellus [5]): 80%
560 | CC1=CSC(OCC(C)C)(c2ccc(Cl)cc2)c2noc(=O)n21 (stereo unspecified) | 83 | 37 | 15 | 
970 | CCCCCCCCCCCCCCCCCCO[C@@]1(c2ccc(Br)cc2)SC=C(C)n2c1noc2=O | 66 | 6 | 5 | 
830 | CCCCCCOC1(c2ccc(Br)cc2)SC=C(C)n2c1noc2=O (stereo unspecified) | 81 | 2 | 9 | 
870 | CCCCCCCC/C=C\CCCCCCCCO[C@@]1(c2ccc(Cl)cc2)SC=C(C)n2c1noc2=O | 70 | 7 | 14 | 
410 | CCCOC1(c2ccc(Br)cc2)SC=C(C)n2c1noc2=O (stereo unspecified) | 69 | 14 |  | Decrease (Cavia porcellus [13]): 12%
890 | CCCOC1(c2ccc(Cl)cc2)SC=C(C)n2c1noc2=O (stereo unspecified) | 73 | 20 | 7 | 
350 | CCCCCCCCCO[C@@]1(c2ccc(Br)cc2)SC=C(C)n2c1noc2=O | 71 | 3 | 7 | 
1540 | COC1(c2ccc(Cl)cc2)SC=C(C)n2c1noc2=O (stereo unspecified) | 62 | 14 | 22 | 
270 | CCO[C@@]1(c2ccc(Cl)cc2)SC=C(C)n2c1noc2=O | 53 | 28 | 16 | 
240 | CC1=CS[C@@](OCC2CCCCC2)(c2ccc(Cl)cc2)c2noc(=O)n21 | 55 | 5 | 5 | 
1020 | CCCCOC1(c2ccc(Br)cc2)SC=C(C)n2c1noc2=O (stereo unspecified) | 82 | 2 | 18 | 
790 | COc1ccc([C@@H]2Sc3ccccc3N(CCN(C)C)C(=O)[C@@H]2OC(C)=O)cc1 [DILTIAZEM] |  | 88 | 94 | Change (Cavia porcellus [8]): -25%; EC50 (Cavia porcellus [15]): 21.9 nM; Change (Cavia porcellus [9]): -51%; Change (Cavia porcellus [10]): 34%; EC50 (Cavia porcellus [16]): 9.33 nM; Decrease (Cavia porcellus [5]): 78%; Change (Cavia porcellus [12]): -59%; EC50 (Cavia porcellus [17]): 1610 nM; Selectivity (Cavia porcellus [18]): 2.04
790 | CCCCCCCCCOC1(c2ccc(Cl)cc2)SC=C(C)n2c1noc2=O (stereo unspecified) | 73 | 4 | 11 | 
190 | CC1=CS[C@@](OCC2CCCCC2)(c2ccc(Br)cc2)c2noc(=O)n21 | 78 | 3 | 8 | 
